Measurements published in ChEMBL document CHEMBL1201862, “PubChem BioAssay data set” (2004).
One block for each molecule: values may come before it. Active and inactive are the calls of the source.

Tests used:
[1] = molecular target: Multidrug resistance protein CDR2 (Candida albicans (strain SC5314 / ATCC MYA-2876) (Yeast), UniProt P78595); assay: CaCDR2 efflux pump inhibitors in yeast, dose response, S. cerevisiae AD1-8u, singleplex, Cherry Pick2 set (AID 623994); type: functional; conditions: read-out: EC50_MICROM
Multidrug resistance protein CDR2, sequence (P78595 whole entry): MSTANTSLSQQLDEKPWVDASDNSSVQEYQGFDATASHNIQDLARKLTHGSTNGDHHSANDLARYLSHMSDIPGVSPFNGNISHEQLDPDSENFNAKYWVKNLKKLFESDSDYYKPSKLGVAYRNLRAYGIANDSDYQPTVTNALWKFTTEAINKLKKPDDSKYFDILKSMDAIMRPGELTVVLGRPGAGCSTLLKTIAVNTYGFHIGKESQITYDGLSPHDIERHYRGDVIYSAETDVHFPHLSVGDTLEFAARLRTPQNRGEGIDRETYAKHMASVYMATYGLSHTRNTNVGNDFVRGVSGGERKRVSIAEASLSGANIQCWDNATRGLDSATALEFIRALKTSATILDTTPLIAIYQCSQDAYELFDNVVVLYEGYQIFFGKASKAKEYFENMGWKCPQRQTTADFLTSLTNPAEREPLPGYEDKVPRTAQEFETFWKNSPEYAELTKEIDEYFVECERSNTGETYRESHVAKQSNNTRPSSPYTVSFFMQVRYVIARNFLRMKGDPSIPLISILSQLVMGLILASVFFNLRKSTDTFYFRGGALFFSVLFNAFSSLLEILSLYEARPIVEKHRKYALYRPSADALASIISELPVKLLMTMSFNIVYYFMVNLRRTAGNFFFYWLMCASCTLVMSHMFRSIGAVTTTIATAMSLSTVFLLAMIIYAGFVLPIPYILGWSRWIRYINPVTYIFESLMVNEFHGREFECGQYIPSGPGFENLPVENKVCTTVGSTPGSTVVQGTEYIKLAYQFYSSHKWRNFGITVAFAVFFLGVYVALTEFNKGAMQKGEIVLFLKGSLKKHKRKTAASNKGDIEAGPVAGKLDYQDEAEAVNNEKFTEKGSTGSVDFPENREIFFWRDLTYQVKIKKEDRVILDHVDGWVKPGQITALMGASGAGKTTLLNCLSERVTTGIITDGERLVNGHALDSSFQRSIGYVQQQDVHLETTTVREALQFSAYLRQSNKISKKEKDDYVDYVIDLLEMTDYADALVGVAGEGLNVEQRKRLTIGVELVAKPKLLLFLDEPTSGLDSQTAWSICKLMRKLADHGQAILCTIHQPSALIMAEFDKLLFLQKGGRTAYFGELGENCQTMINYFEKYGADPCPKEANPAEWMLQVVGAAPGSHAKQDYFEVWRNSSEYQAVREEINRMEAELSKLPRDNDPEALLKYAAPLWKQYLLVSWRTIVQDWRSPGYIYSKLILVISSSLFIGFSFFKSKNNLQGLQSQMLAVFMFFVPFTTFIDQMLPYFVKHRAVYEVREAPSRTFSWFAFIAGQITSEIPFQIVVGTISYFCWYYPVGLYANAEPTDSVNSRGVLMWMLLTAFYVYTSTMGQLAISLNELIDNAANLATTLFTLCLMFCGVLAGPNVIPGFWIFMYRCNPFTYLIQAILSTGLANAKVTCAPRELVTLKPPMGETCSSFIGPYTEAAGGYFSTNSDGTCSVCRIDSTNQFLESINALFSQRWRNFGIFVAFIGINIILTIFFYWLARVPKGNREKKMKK

[2] = cytotoxicity in MIN6 insulinoma cells, dose response, cytotoxicity control, cell-based, mouse insulinoma (AID 2122); type: functional;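 further: confirmatory high-throughput counterscreen run to flag cytotoxic compounds; mouse MIN-6 beta cells carrying an insulin promoter eGFP reporter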
INS1 = assay: beta cell apoptosis inhibitors, cytokine rescue, dose response, luminescence, retest (AID 449756); type: functional, cell-based; conditions: Rattus norvegicus;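 further: cell death triggered by IL-1 beta plus TNF-alpha plus IFN-gamma mixture; protective hits raise ATP signal compared with cytokine alone wells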
[3] = inhibitors of intracellular T. cruzi replication, confirmation, NIH3T3 host cells, beta-gal luminescence (AID 2044); type: functional, cell-based;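 further: intracellular parasites grown in NIH/3T3 mouse fibroblasts as host cells; luminescent beta-galactosidase reporter signal from transgenic T. cruzi replicating inside host cells; inhibitors lower the luminescence signal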
[4] = cytotoxicity in HEK-293T NF-kB-Luc cells, dose response, cytotoxicity control for B/T-cell NF-kB inhibitor project, cell-based, uHTS hits (AID 489019); type: functional;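 further: IC50 reflects cytotoxicity as loss of cell viability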
[5] = insulin promoter down-regulators in MIN6 cells, imaging, high-content screening, mouse beta cells (AID 1628); type: functional
Jurkat = assay: antigen receptor-induced NF-kB inhibitors, dose response, Jurkat, luciferase reporter, luminescence, B- and T-cell (AID 489004); type: functional, cell-based; conditions: Homo sapiens;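 further: NF-kB luciferase reporter Jurkat cells stimulated with PMA plus ionomycin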
[6] = cytotoxicity toward NIH3T3 fibroblasts, dose response, counter-screen, cell-based, ATP luminescence, mouse fibroblasts (AID 2010); type: functional;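 further: cells exposed to compound for about 90 hours before reading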
[7] = AlphaScreen signal interference compounds, dose response, artefact control for ARNT-TACC3 interaction inhibitor project, biochemical, luminescence, cherry-pick (AID 651705); type: functional;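 further: AlphaScreen bead proximity signal that flags compounds interfering with the detection technology; potency reflects signal decrease which marks the compound as an assay artifact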
[8] = molecular target: Low molecular weight phosphotyrosine protein phosphatase (Homo sapiens, UniProt P24666); type: functional; conditions: read-out: IC50_Mean;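 further: Dose-response confirmation assay measuring inhibition of LMPTP enzyme activity by fluorescence intensity read-out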
Low molecular weight phosphotyrosine protein phosphatase, sequence (P24666 whole entry): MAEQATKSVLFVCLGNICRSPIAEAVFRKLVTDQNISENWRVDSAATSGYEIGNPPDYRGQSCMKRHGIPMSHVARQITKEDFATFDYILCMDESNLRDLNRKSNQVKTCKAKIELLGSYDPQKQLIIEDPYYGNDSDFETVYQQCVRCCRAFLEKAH

Beta Lactamase = Beta Lactamase (Pseudomonas aeruginosa, UniProt Q932Y6); assay: beta-lactamase reporter inhibitor potency, dose response, artefact control for NOD2-RIPK2 interaction inhibitor project, BLA reporter cells, FRET fluorescence (AID 651552); type: functional, cell-based
Beta Lactamase, sequence (Q932Y6 whole entry, the tested form may be a part): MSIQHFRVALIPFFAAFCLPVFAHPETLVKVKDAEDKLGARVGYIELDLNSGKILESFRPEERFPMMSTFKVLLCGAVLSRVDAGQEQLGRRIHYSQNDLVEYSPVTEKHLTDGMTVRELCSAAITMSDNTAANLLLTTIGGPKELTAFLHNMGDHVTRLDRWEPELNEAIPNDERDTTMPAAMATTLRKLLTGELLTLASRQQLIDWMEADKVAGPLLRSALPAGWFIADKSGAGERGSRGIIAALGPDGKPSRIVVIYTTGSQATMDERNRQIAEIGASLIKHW

[9] = Fluorescence-based cell-based high throughput dose response assay for inhibitors of the interaction of nucleotide-binding oligomerization domain containing 2 (NOD2) and the receptor-interacting serine-threonine kinase 2 (RIPK2).; type: functional; conditions: Homo sapiens
[10] = molecular target: Hepatocyte nuclear factor 4-alpha (Homo sapiens, UniProt P41235); type: functional, cell-based;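 further: biochemical luminescence-based dose-response counterscreen measuring inhibition of HNF4 dimerization, run alongside a screen for blockers of ABHD5–perilipin-5 interaction; split luciferase complementation of HNF4 fusion proteins in cell lysate measuring dimerization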
Hepatocyte nuclear factor 4-alpha, sequence (P41235 whole entry, the tested form may be a part): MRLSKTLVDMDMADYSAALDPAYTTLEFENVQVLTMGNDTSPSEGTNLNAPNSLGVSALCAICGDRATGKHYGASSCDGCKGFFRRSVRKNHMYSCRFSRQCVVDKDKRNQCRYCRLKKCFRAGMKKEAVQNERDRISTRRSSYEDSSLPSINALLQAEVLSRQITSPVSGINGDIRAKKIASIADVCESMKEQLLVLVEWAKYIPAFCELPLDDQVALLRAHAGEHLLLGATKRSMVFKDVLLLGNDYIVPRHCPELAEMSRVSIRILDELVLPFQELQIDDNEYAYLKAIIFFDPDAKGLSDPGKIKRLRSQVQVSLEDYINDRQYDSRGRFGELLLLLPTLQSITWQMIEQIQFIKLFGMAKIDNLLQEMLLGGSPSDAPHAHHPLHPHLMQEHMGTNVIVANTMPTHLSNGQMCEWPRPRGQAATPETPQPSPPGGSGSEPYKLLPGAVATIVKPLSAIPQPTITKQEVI

[11] = molecular target: T1, ATP-dependent translocase ABCB1 (Homo sapiens, UniProt P08183); assay: ABCB1 efflux inhibitor potency, dose response, Jurkat-DNR cells, JC-1, flow cytometry, set 2 (AID 504569); type: functional; conditions: read-out: EC50_MICROM_;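 further: potency of pump inhibitors that raise cellular JC-1 green fluorescence up to the nicardipine level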
T1 sequence (P08183 whole entry): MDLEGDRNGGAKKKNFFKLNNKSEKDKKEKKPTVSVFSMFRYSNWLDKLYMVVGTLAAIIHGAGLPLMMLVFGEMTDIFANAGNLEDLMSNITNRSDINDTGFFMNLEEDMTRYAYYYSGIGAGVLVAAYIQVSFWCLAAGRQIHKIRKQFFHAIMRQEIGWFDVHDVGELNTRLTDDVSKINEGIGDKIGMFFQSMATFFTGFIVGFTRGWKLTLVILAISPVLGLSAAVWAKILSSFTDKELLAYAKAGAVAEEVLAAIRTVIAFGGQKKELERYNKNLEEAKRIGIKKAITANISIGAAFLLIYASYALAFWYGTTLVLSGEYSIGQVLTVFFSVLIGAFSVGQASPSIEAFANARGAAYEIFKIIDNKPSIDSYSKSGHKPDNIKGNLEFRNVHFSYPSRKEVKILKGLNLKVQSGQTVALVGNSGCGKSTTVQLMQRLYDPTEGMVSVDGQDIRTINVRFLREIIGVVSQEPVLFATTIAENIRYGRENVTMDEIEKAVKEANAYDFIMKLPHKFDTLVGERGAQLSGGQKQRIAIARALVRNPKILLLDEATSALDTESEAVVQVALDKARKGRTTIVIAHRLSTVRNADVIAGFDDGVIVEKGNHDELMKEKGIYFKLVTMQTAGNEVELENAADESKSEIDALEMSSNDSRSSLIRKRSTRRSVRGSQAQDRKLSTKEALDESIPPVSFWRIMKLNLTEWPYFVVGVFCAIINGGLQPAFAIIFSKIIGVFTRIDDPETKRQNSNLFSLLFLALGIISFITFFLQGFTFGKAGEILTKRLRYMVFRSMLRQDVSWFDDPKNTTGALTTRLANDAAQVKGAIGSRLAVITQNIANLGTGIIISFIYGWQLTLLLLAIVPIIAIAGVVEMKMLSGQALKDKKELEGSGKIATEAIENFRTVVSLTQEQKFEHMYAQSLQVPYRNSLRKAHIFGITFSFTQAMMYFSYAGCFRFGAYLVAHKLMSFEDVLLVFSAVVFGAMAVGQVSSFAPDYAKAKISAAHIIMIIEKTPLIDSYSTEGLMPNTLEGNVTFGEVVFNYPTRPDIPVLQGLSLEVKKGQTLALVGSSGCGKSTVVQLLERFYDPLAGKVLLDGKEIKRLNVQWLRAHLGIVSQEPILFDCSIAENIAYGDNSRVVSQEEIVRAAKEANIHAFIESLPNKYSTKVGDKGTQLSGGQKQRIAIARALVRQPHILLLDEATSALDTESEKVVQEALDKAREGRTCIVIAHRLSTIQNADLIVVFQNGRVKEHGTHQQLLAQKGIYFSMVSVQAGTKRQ

[12] = molecular target: T1, ATP-dependent translocase ABCB1; assay: ABCG2 efflux pump inhibitor potency, dose response, Ig-MXP3 cells, JC-1, flow cytometry, set 2 (AID 504566); type: functional; conditions: read-out: EC50_MICROM_;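 further: flow cytometry median green fluorescence of retained JC-1 dye; potency of efflux pump inhibition measured as rising substrate retention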
Interleukin-8 [13] = molecular target: T2, Interleukin-8 (Homo sapiens, UniProt P10145); assay: Dose Response confirmation of uHTS small molecule hits for cystic fibrosis induced NFkb Inhibitors in a PAF-induced IL8 counterscreen.; type: functional; conditions: read-out: IC50_Mean
T2 sequence (P10145 whole entry): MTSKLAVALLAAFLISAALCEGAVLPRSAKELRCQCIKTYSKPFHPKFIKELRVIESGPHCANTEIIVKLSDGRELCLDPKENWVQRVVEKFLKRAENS

Interleukin-8 [14] = molecular target: T2, Interleukin-8; assay: Dose Response confirmation of uHTS small molecule hits for cystic fibrosis induced NFkb Inhibitors in a TNFa-induced IL8 counterscreen.; type: functional; conditions: read-out: IC50_Mean

Structure (SMILES): NC1=NC[C@H](Cc2ccc(O)cc2)N1CCCCC1CCCCC1
EC50 [1]: 15.9 µM (active)
IC50 [2]: 4.52 µM (active)
AC50 (INS1): 2.43 µM (active)
EC50 [3]: 1.4 µM (active)
IC50 [4]: 67.6 µM (inactive)
IC50 [5]: 3.72 µM (active)
IC50 (Jurkat): 8.18 µM (active)
EC50 [6]: > 60 µM (not active)

Structure (SMILES): COCCn1c(-c2ccccc2)cnc1N
AC50 [7]: 115 µM (active)

Structure (SMILES): Cc1c(C(=O)Nc2ccccc2)c2ccc(C(F)(F)F)cc2n1O
IC50 (Beta Lactamase): 19.4 µM (inactive)
IC50 [9]: 14.5 µM (inactive)

Structure (SMILES): O=C(c1ccoc1)N1CCN(c2cc(-c3ccc(F)cc3)nc3cc(-c4cccc(Cl)c4)nn23)CC1
EC50 [11]: 5.57 µM (active)
EC50 [12]: 2.75 µM (active)

Continued, values first:

IC50 [8]: 27.9 µM (inactive)
Structure (SMILES): COC(=O)c1ccc(C(=O)OC)c(NC(=O)Cc2cccs2)c1

IC50 [10]: 2.74 µM (active)
Structure (SMILES): O=C(NC1CCCCC1)C(c1ccc(-c2ccccc2)cc1)n1c(=O)c(-c2ccco2)nc2ccccc21 (configuration not stated)

IC50 (Interleukin-8 [13]): 12.4 µM (inactive)
IC50 (Interleukin-8 [14]): 5.37 µM (active)
Structure (SMILES): COc1cccc(-c2ccc3ncnc(NCc4cc(C)cs4)c3c2)c1
